Experimental data: PubChem BioAssay AID184 (DTP/NCI, 2004)
Where “and” joins values, the source holds several entries; their conditions need not be identical. Equal values may be shown once. Inconclusive results and toxic doses are left out.

Tested on: BALB/cJ mice, ADJ-PC-6 ip tumor, median survival T/C
Assay: NCI In Vivo Anticancer Drug Screen. Data for tumor model ADJ-PC-6 (intraperitoneal) in BALB/cJ mice
Conditions: endpoint: median survival time, higher = longer survival
Protocol: The antitumor activity of compounds was measured in mice bearing transplantable tumors. Survival or tumor size were measured and the results are expressed as the measurement made in the treated group (T) divided by the measurement made in the vehicle treated control group (C). The tumor model used in this assay is ADJ-PC-6 (intraperitoneal) in BALB/cJ mice

[1] = dose: 5.0 mg/kg/injection, schedule: Q04DX003 (ip), vehicle: saline
[2] = dose: 10.0 mg/kg/injection, schedule: Q04DX003 (ip), vehicle: saline
[3] = dose: 20.0 mg/kg/injection, schedule: Q04DX003 (ip), vehicle: saline
[4] = dose: 40.0 mg/kg/injection, schedule: Q04DX003 (ip), vehicle: saline
[5] = dose: 80.0 mg/kg/injection, schedule: Q04DX003 (ip), vehicle: saline
[6] = dose: 7.5 mg/kg/injection, schedule: Q04DX003 (ip), vehicle: saline
[7] = dose: 15.0 mg/kg/injection, schedule: Q04DX003 (ip), vehicle: saline
[8] = dose: 30.0 mg/kg/injection, schedule: Q04DX003 (ip), vehicle: saline
[9] = dose: 60.0 mg/kg/injection, schedule: Q04DX003 (ip), vehicle: saline
[10] = dose: 0.25 mg/kg/injection, schedule: Q04DX003 (ip), vehicle: saline
[11] = dose: 0.5 mg/kg/injection, schedule: Q04DX003 (ip), vehicle: saline
[12] = dose: 1.0 mg/kg/injection, schedule: Q04DX003 (ip), vehicle: saline
[13] = dose: 2.0 mg/kg/injection, schedule: Q04DX003 (ip), vehicle: saline

COc1cc([C@@H]2c3cc4c(cc3[C@@H](OC3OC5CO[C@@H](c6cccs6)OC5C(O)C3O)[C@H]3COC(=O)[C@H]23)OCO4)cc(OC)c1O (some centres undefined)
T/C [1]: 185 % of control | T/C [2]: 151 % of control and 207 % of control | T/C [3]: 264 % of control and 301 % of control | T/C [4]: 269 % of control and 355 % of control | T/C [5]: 337 % of control and 355 % of control | T/C (dose: 160.0 mg/kg/injection, schedule: Q04DX003 (ip), vehicle: saline): 337 % of control

CN(C)/N=N/c1nc[nH]c1C(N)=O
T/C (dose: 50.0 mg/kg/injection, schedule: Q01DX009 (ip), vehicle: saline with Tween-80): 99 % of control | T/C (dose: 50.0 mg/kg/injection, schedule: Q04DX003 (ip), vehicle: saline with Tween-80): 335 % of control and 471 % of control | T/C (dose: 100.0 mg/kg/injection, schedule: Q01DX009 (ip), vehicle: saline with Tween-80): 110 % of control | T/C (dose: 200.0 mg/kg/injection, schedule: Q01DX009 (ip), vehicle: saline with Tween-80): 105 % of control | T/C (dose: 200.0 mg/kg/injection, schedule: Q04DX003 (ip), vehicle: Klucel (hydroxypropylcellulose) (HPC)): 216 % of control and 275 % of control | T/C (dose: 200.0 mg/kg/injection, schedule: Q04DX003 (ip), vehicle: saline with Tween-80): 335 % of control and 471 % of control | T/C (dose: 400.0 mg/kg/injection, schedule: Q04DX003 (ip), vehicle: Klucel (hydroxypropylcellulose) (HPC)): 275 % of control and 369 % of control | T/C (dose: 400.0 mg/kg/injection, schedule: Q04DX003 (ip), vehicle: saline with Tween-80): 227 % of control and 335 % of control and 471 % of control

C(=N/NC1=NCCN1)/c1c2ccccc2c(/C=N\NC2=NCCN2)c2ccccc12
T/C (dose: 3.75 mg/kg/injection, schedule: Q04DX003 (ip), vehicle: saline): 253 % of control | T/C (dose: 3.75 mg/kg/injection, schedule: Q04DX003 (ip), vehicle: water): 235 % of control | T/C [6]: 204 % of control | T/C (dose: 7.5 mg/kg/injection, schedule: Q04DX003 (ip), vehicle: water): 235 % of control | T/C [7]: 253 % of control | T/C (dose: 15.0 mg/kg/injection, schedule: Q04DX003 (ip), vehicle: water): 235 % of control | T/C [8]: 225 % of control | T/C (dose: 30.0 mg/kg/injection, schedule: Q04DX003 (ip), vehicle: water): 235 % of control | T/C [9]: 267 % of control

CCC1(O)CC2CN(CCc3c([nH]c4ccccc34)C(C(=O)OC)(c3cc4c(cc3OC)N(C)C3C(O)(C(N)=O)C(O)C5(CC)C=CCN6CCC43C65)C2)C1 (centres undefined) (tested in a mixture with another compound)
T/C [10]: 92 % of control and 100 % of control | T/C [11]: 106 % of control | T/C [12]: 102 % of control | T/C [13]: 115 % of control and 235 % of control

CCCCCCCC(=O)N/N=C(\CO)[C@]1(O)Cc2c(O)c3c(c(O)c2[C@@H](OC2CC(N)C(O)C(C)O2)C1)C(=O)c1c(OC)cccc1C3=O (some centres undefined)
T/C [1]: 165 % of control | T/C [2]: 242 % of control | T/C [3]: 180 % of control | T/C [4]: 226 % of control | T/C [5]: 118 % of control

O=C1NC(=O)C2C3C=CC(C12)C1C2C(=O)NC(=O)C2C31 (centres undefined)
T/C (dose: 5.0 mg/kg/injection, schedule: Q01DX009 (ip), vehicle: saline with Tween-80): 110 % of control | T/C (dose: 10.0 mg/kg/injection, schedule: Q01DX009 (ip), vehicle: saline with Tween-80): 88 % of control and 103 % of control | T/C (dose: 80.0 mg/kg/injection, schedule: Q01DX009 (ip), vehicle: saline with Tween-80): 235 % of control

CC1(CO)C(O)CCC2(C)C1CCC1CC3CC12CCC3(O)CO (centres undefined)
T/C (dose: 37.5 mg/kg/injection, schedule: Q04DX003 (ip), vehicle: Klucel (hydroxypropylcellulose) (HPC)): 92 % of control and 120 % of control | T/C (dose: 75.0 mg/kg/injection, schedule: Q04DX003 (ip), vehicle: Klucel (hydroxypropylcellulose) (HPC)): 115 % of control and 118 % of control | T/C (dose: 150.0 mg/kg/injection, schedule: Q04DX003 (ip), vehicle: Klucel (hydroxypropylcellulose) (HPC)): 100 % of control and 109 % of control | T/C (dose: 600.0 mg/kg/injection, schedule: Q04DX003 (ip), vehicle: Klucel (hydroxypropylcellulose) (HPC)): 106 % of control

Nc1ncn(C2OC(CO)C(O)C2O)c(=O)n1 (centres undefined)
T/C [13]: 120 % of control | T/C (dose: 8.0 mg/kg/injection, schedule: Q04DX003 (ip), vehicle: saline): 157 % of control | T/C [2]: 185 % of control | T/C [3]: 219 % of control | T/C (dose: 32.0 mg/kg/injection, schedule: Q04DX003 (ip), vehicle: saline): 235 % of control

CC(=O)N(C)c1ccc(Nc2cc(C)[nH]c3ccc4ncnc4c23)cc1
T/C [2]: 100 % of control | T/C [3]: 162 % of control | T/C [4]: 107 % of control

COC(=O)C[C@](O)(CCCC(C)(C)O)C(=O)O[C@@H]1C(OC)=C[C@]23CCCN2CCc2cc4c(cc2[C@H]13)OCO4
T/C [10]: 104 % of control | T/C [11]: 93 % of control | T/C [12]: 88 % of control | T/C [13]: 104 % of control | T/C (dose: 4.0 mg/kg/injection, schedule: Q04DX003 (ip), vehicle: saline): 102 % of control

COc1cccc2c1C(=O)c1c(O)c3c(c(O)c1C2=O)C[C@@](O)(C(C)=O)C[C@@H]3OC1CC(N)C(O)C(C)O1 (some centres undefined)
T/C (dose: 0.38 mg/kg/injection, schedule: Q04DX003 (ip), vehicle: saline): 101 % of control | T/C (dose: 1.5 mg/kg/injection, schedule: Q04DX003 (ip), vehicle: saline): 174 % of control | T/C [13]: 177 % of control | T/C (dose: 3.0 mg/kg/injection, schedule: Q04DX003 (ip), vehicle: saline): 117 % of control

Nc1nc(F)nc2c1ncn2C1OC(COP(=O)(O)O)C(O)C1O (centres undefined)
T/C (dose: 25.0 mg/kg/injection, schedule: Q01DX009 (ip), vehicle: saline): 90 % of control | T/C (dose: 50.0 mg/kg/injection, schedule: Q01DX009 (ip), vehicle: saline): 91 % of control | T/C (dose: 100.0 mg/kg/injection, schedule: Q01DX009 (ip), vehicle: saline): 104 % of control

COc1cc(NCc2ccc3nc(N)nc(N)c3c2C)cc(OC)c1OC
T/C (dose: 3.75 mg/kg/injection, schedule: Q01DX009 (ip), vehicle: Klucel (hydroxypropylcellulose) (HPC)): 98 % of control | T/C (dose: 7.5 mg/kg/injection, schedule: Q01DX009 (ip), vehicle: Klucel (hydroxypropylcellulose) (HPC)): 110 % of control | T/C (dose: 15.0 mg/kg/injection, schedule: Q01DX009 (ip), vehicle: Klucel (hydroxypropylcellulose) (HPC)): 115 % of control

CO[C@H]1C[C@](C)(O)Cc2cc3c(c(O)c21)C(=O)c1c(O)cc2c(c1C3=O)O[C@@H]1O[C@@]2(C)[C@H](O)[C@@H](N(C)C)[C@@H]1O
T/C [6]: 188 % of control | T/C (dose: 12.5 mg/kg/injection, schedule: Q04DX003 (ip), vehicle: saline): 189 % of control | T/C [7]: 319 % of control | T/C (dose: 25.0 mg/kg/injection, schedule: Q04DX003 (ip), vehicle: saline): 252 % of control | T/C [8]: 267 % of control | T/C [9]: 471 % of control

[Cl][Pt+2][Cl].[NH-]C1CCC1.[NH2-]
T/C (dose: 1.04 mg/kg/injection, schedule: Q04DX003 (ip), vehicle: water): 216 % of control | T/C (dose: 1.73 mg/kg/injection, schedule: Q04DX003 (ip), vehicle: water): 265 % of control | T/C (dose: 2.88 mg/kg/injection, schedule: Q04DX003 (ip), vehicle: water): 301 % of control

CC1OC(=O)C(C(C)C)NC(=O)C(C(C)C)OC(=O)C(C(C)C)NC(=O)C(C)OC(=O)C(C(C)C)NC(=O)C(C(C)C)OC(=O)C(C(C)C)NC(=O)C(C)OC(=O)C(C(C)C)NC(=O)C(C(C)C)OC(=O)C(C(C)C)NC1=O (centres undefined)
T/C (dose: 0.75 mg/kg/injection, schedule: Q04DX003 (ip), vehicle: Klucel (hydroxypropylcellulose) (HPC)): 87 % of control | T/C (dose: 1.5 mg/kg/injection, schedule: Q04DX003 (ip), vehicle: Klucel (hydroxypropylcellulose) (HPC)): 102 % of control | T/C (dose: 2.0 mg/kg/injection, schedule: Q01DX009 (ip), vehicle: Klucel (hydroxypropylcellulose) (HPC)): 100 % of control | T/C (dose: 4.0 mg/kg/injection, schedule: Q01DX009 (ip), vehicle: Klucel (hydroxypropylcellulose) (HPC)): 104 % of control | T/C (dose: 8.0 mg/kg/injection, schedule: Q01DX009 (ip), vehicle: Klucel (hydroxypropylcellulose) (HPC)): 185 % of control

COc1cccc2c1C(=O)c1c(O)c3c(c(O)c1C2=O)C[C@@](O)(C(C)=O)C[C@@H]3OC1CC(N(Cc2ccccc2)Cc2ccccc2)C(O)C(C)O1 (some centres undefined)
T/C (dose: 5.0 mg/kg/injection, schedule: Q04DX003 (ip), vehicle: saline with Tween-80): 96 % of control | T/C (dose: 10.0 mg/kg/injection, schedule: Q04DX003 (ip), vehicle: saline with Tween-80): 109 % of control | T/C (dose: 20.0 mg/kg/injection, schedule: Q04DX003 (ip), vehicle: saline with Tween-80): 177 % of control

CC[C@]1(O)C[C@H]2CN(CCc3c([nH]c4ccccc34)[C@@](C(=O)OC)(c3cc4c(cc3OC)N(C=O)[C@H]3[C@@](O)(C(=O)OC)[C@H](OC(C)=O)[C@]5(CC)C=CCN6CC[C@]43[C@@H]65)C2)C1
T/C (dose: 0.13 mg/kg/injection, schedule: Q04DX003 (ip), vehicle: saline): 99 % of control and 110 % of control | T/C [10]: 101 % of control and 110 % of control | T/C [11]: 97 % of control and 102 % of control | T/C [12]: 106 % of control and 121 % of control | T/C [13]: 122 % of control
